Measured values published in PubChem BioAssay (NCI).
Several values for one entry are separate records, joined by “and”; a condition that tells them apart may be missing. Equal entries are not always repeated.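 Growth conditions: 96-well plates. Treatment: test compound, 48 hours, 5 concentrations. Analysis: linear interpolation between bracketing concentrations; unreached endpoints set to highest concentration. GI50 = concentration required for 50% inhibition of growth. Definition used: TGI = concentration required for complete inhibition of growth.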

Legend:
Test in all cases: inhibition of tumour cell growth, NCI panel, 48 h
CCRF-CEM leukemia = system: CCRF-CEM leukemia
COLO 205 colon = system: COLO 205 colon
HCT-15 colon = system: HCT-15 colon
HOP-62 NSCLC = system: HOP-62 NSCLC
M14 melanoma = system: M14 melanoma
MDA-MB-435 = system: MDA-MB-435
OVCAR-8 ovarian = system: OVCAR-8 ovarian
T-47D breast = system: T-47D breast
UACC-62 melanoma = system: UACC-62 melanoma
BT-549 breast = system: BT-549 breast

| Structure (SMILES) | GI50 (CCRF-CEM leukemia) [µM] | TGI (CCRF-CEM leukemia) [µM] | GI50 (COLO 205 colon) [µM] | TGI (COLO 205 colon) | GI50 (HCT-15 colon) [µM] | TGI (HCT-15 colon) [µM] | GI50 (HOP-62 NSCLC) [µM] | TGI (HOP-62 NSCLC) [µM] | GI50 (M14 melanoma) [µM] | TGI (M14 melanoma) [µM] | GI50 (MDA-MB-435) [µM] | TGI (MDA-MB-435) [µM] | GI50 (OVCAR-8 ovarian) [µM] | TGI (OVCAR-8 ovarian) [µM] | GI50 (T-47D breast) [µM] | TGI (T-47D breast) [µM] | GI50 (UACC-62 melanoma) [µM] | TGI (UACC-62 melanoma) [µM] | GI50 (BT-549 breast) [µM] | TGI (BT-549 breast) [µM] |
| --- | --- | --- | --- | --- | --- | --- | --- | --- | --- | --- | --- | --- | --- | --- | --- | --- | --- | --- | --- | --- |
| CC(=O)Nc1ccc2c(c1)CN1C(=O)c3ccccc3C1=N2 | > 100 | > 100 | > 100 | > 100 µM | > 100 | > 100 | > 100 | > 100 | > 100 | > 100 | > 100 | > 100 | > 100 | > 100 | > 100 | > 100 | > 100 | > 100 |  |  |
| C=C(C[N+](C)(C)C)N/N=C/c1oc(-c2ccc(OC)c(OC)c2)c(-c2ccc(OC)c(OC)c2)c1[N+](=O)[O-] |  | 50.5 |  | 33.6 µM |  | 36.8 |  |  |  | 48.2 |  |  |  | 31.4 |  |  |  |  |  |  |
| BrC(Br)([P+](c1ccccc1)(c1ccccc1)c1ccccc1)[P+](c1ccccc1)(c1ccccc1)c1ccccc1 |  |  |  | 29.9 µM |  | 98.2 |  | > 100 |  | 48.9 |  |  |  | 26.4 |  |  |  | 29.8 |  |  |
| COC(=O)C1=C(C(=O)OC)N(C(C)C)[C@H]2C(C(=O)OC)=C(C(=O)OC)N(C(C)C)[C@@H]12 |  | > 100 |  | > 100 µM |  | > 100 |  | > 100 |  | > 100 |  |  |  | > 100 |  |  |  | > 100 |  |  |
| O=c1ncccn1C1OC(CO)C(O)C1F (stereo not given) | > 100 | > 100 |  | > 100 µM | > 100 | > 100 |  | > 100 |  | > 100 |  |  |  | > 100 |  |  | > 100 | > 100 |  |  |
| COc1cc2c3c(c1OC)/C(=N/OS(=O)(=O)c1ccc(C)cc1)CC3N(S(=O)(=O)c1ccc(C)cc1)CC2 (stereo not given) |  | > 100 |  | > 100 µM |  |  |  | > 100 |  | > 100 |  |  |  | > 100 |  |  |  | > 100 |  |  |
| O=c1c2ccccc2c(=O)c2c1sc1c(=O)c3ccc(O)cc3c(=O)c12 | 2.59 | 10.3 |  |  |  |  | 0.15 | 0.285 | 0.0976 | 0.219 | 0.173 | 0.326 | 1.78 | 8.31 | 2.04 | 6.3 | 0.174 | 0.331 | 0.163 | 0.33 |
| N#CC1=C(N)NC(=S)C(C#N)C12Nc1ccccc1S2 (stereo not given) |  |  | 25.5 | 60.6 µM | 15 | 42.3 | 17.6 | 72.4 | 16.1 | 32 | 17.2 | 44.7 | 27.2 | 65 | 32.9 | 98.4 | 18 | 33.4 | 21.7 | 49.1 |
| C1=CC=C2NCCSCCNC3=CC=CC=CC3=NCCSCCN=C2C=C1 |  | > 100 |  | > 100 µM |  | > 100 |  | > 100 |  | > 100 |  |  |  | > 100 |  |  |  | > 100 |  |  |
| C/C(=N\O)[C@H]1CC[C@@]2(C)[C@@H]3CC[C@H]4C(C)(C)/C(=N/O)CC[C@@]45CC35CC[C@]12C (stereo not given in full) |  |  | 5.75 | > 16.7 µM | 3.75 | 10.5 | 4.3 | > 16.7 | 3.2 | 8.11 |  |  | 3.64 | 9.39 |  |  | 5.44 | > 16.7 | 2.65 | 9.59 |
| CCOC(=O)c1cc(C(=O)O)c(=O)n2c1[nH]c1ccccc12 |  | > 100 |  | > 100 µM |  | > 100 |  | > 100 |  | > 100 |  |  |  | > 100 |  |  |  | > 100 |  |  |
| CCCC/C=C1\CCC(CN2CCCC2)C1=O (stereo not given) |  | 25 |  | 26.1 µM |  | 11.2 |  | 33.3 |  | 23.4 |  |  |  | 28.5 |  |  |  | 31.2 |  |  |
| O=C1Nc2ccc(Br)cc2C1=Nc1ccc(Cl)cc1 |  | 51.9 |  | 4.71 µM |  | 36.8 |  | 52.1 |  | 72.2 |  | 20.6 |  | 26.7 |  | > 100 |  | 12.6 |  |  |
| Cc1ccc(N2C(=O)/C(=C3\Sc4c(nc(C)n(C)c4=O)N3c3ccccc3)SC2=S)cc1 |  | > 100 |  | > 100 µM |  | > 100 |  |  |  | > 100 |  |  |  | 91.3 |  |  |  | > 100 |  |  |
| Cc1nnc(N=Nc2c(O)[nH]c3ccccc23)[nH]c1=O |  |  |  |  |  | > 100 |  | > 100 |  | > 100 |  | > 100 |  | > 100 |  |  |  | > 100 |  | > 100 |
| Cc1ccc(S(=O)c2ccc([N+](=O)[O-])c3nonc23)cc1 (stereo not given) | 2.3 | 6.27 | 1.9 | 3.43 µM |  |  | 16.2 | 30.8 | 11 | 23.7 | 10.2 | 26 | 6.89 | 22.4 | 2.04 | 4.59 | 7.25 | 20.2 | 10.1 | 21.7 |
| CCC1(Cl)C(=O)NC(=O)N(C2CC(O)C(CO)O2)C1N=[N+]=[N-] (stereo not given) |  | > 100 |  | > 100 µM |  |  |  | > 100 |  | > 100 |  |  |  | > 100 |  |  |  | > 100 |  |  |
| COc1cc2c(c(OC)c1OC)-c1ccc(SC)c(=O)cc1[C@@H](NC(=O)c1ccc(F)cc1)CC2 |  | > 100 | < 0.01 | 0.0388 µM and < 0.01 µM | 0.043 |  | < 0.01 | 39.9 | < 0.01 | 2.69 |  |  | < 0.01 | 14.6 |  |  | < 0.01 | 27.6 |  |  |
| C=C1c2ccccc2N(S(=O)(=O)c2ccc(C)cc2)C12CCCCC2 |  | > 100 |  | > 100 µM |  | > 100 |  | > 100 |  | > 100 |  |  |  | > 100 |  |  |  | > 100 |  |  |
| CC(C)(C)c1cc(C(=O)O)c(C(c2ccccc2)c2ccccc2C(=O)O)c(C(=O)O)c1 (stereo not given) |  | > 100 |  | > 100 µM |  | > 100 |  | > 100 |  | > 100 |  |  |  | > 100 |  |  |  | > 100 |  |  |
| O=C1[C@H]2ON(c3ccccc3)C(c3cccc([N+](=O)[O-])c3)[C@H]2C(=O)N1c1ccc(Cc2ccc(N3C(=O)[C@@H]4ON(c5ccccc5)C(c5cccc([N+](=O)[O-])c5)[C@@H]4C3=O)cc2)cc1 (stereo not given in full) |  | > 100 |  | > 100 µM |  | > 100 |  | > 100 |  | 60.8 |  |  |  | > 100 |  |  |  | > 100 |  |  |
